ChEMBL document CHEMBL4308841, “Synthesis, in vitro antiproliferative activity, and kinase inhibitory effects of pyrazole-containing diarylureas and diarylamides” (Eur J Med Chem, 2018)

Experiments:
OVCAR-5 [1] = experiment: Growth inhibition of human OVCAR5 cells assessed as cell growth at 1 uM incubated for 48 hrs by sulforhodamine B assay relative to control; assay type: functional; conditions: OVCAR-5, 48 h, read-out: Activity
NCI-H460 [2] = experiment: Growth inhibition of human NCI-H460 cells assessed as cell growth at 0.01 uM incubated for 48 hrs by sulforhodamine B assay relative to control; assay type: functional; conditions: NCI-H460, 48 h, read-out: Activity
LOX IMVI = experiment: Growth inhibition of human LOXIMVI cells assessed as cell growth at 1 uM incubated for 48 hrs by sulforhodamine B assay relative to control; assay type: functional; conditions: read-out: Activity
SK-OV-3 = experiment: Growth inhibition of human SKOV3 cells incubated for 48 hrs by sulforhodamine B assay; assay type: functional, cell-based; conditions: SK-OV-3, 48 h
HT-29 [3] = experiment: Growth inhibition of human HT-29 cells assessed as cell growth at 0.1 uM incubated for 48 hrs by sulforhodamine B assay relative to control; assay type: functional; conditions: HT-29, 48 h, read-out: Activity
SW-620 = experiment: Growth inhibition of human SW620 cells assessed as cell growth at 1 uM incubated for 48 hrs by sulforhodamine B assay relative to control; assay type: functional; conditions: SW-620, 48 h, read-out: Activity
NCI-H460 [4] = experiment: Growth inhibition of human NCI-H460 cells incubated for 48 hrs by sulforhodamine B assay; assay type: functional, cell-based; conditions: NCI-H460, 48 h
U-251 = experiment: Growth inhibition of human U251 cells incubated for 48 hrs by sulforhodamine B assay; assay type: functional, cell-based; conditions: U-251, 48 h
NCI-H226 [5] = experiment: Growth inhibition of human NCI-H226 cells assessed as cell growth at 0.01 uM incubated for 48 hrs by sulforhodamine B assay relative to control; assay type: functional; conditions: NCI-H226, 48 h, read-out: Activity
RXF 393 = experiment: Growth inhibition of human RXF393 cells incubated for 48 hrs by sulforhodamine B assay; assay type: functional, cell-based; conditions: RXF 393, 48 h
NCI-H460 [6] = experiment: Growth inhibition of human NCI-H460 cells assessed as cell growth at 100 uM incubated for 48 hrs by sulforhodamine B assay relative to control; assay type: functional; conditions: NCI-H460, 48 h, read-out: Activity
UACC-62 = experiment: Growth inhibition of human UACC62 cells assessed as cell growth at 100 uM incubated for 48 hrs by sulforhodamine B assay relative to control; assay type: functional; conditions: UACC-62, 48 h, read-out: Activity
OVCAR-8 [7] = experiment: Growth inhibition of human OVCAR8 cells assessed as cell growth at 100 uM incubated for 48 hrs by sulforhodamine B assay relative to control; assay type: functional; conditions: OVCAR-8, 48 h, read-out: Activity
ACHN = experiment: Growth inhibition of human ACHN cells assessed as cell growth at 1 uM incubated for 48 hrs by sulforhodamine B assay relative to control; assay type: functional; conditions: read-out: Activity
NCI-H226 [8] = experiment: Growth inhibition of human NCI-H226 cells incubated for 48 hrs by sulforhodamine B assay; assay type: functional, cell-based; conditions: NCI-H226, 48 h
PC-3 = experiment: Growth inhibition of human PC3 cells assessed as cell growth at 0.1 uM incubated for 48 hrs by sulforhodamine B assay relative to control; assay type: functional; conditions: PC-3, 48 h, read-out: Activity
HT-29 [9] = experiment: Growth inhibition of human HT-29 cells assessed as cell growth at 0.01 uM incubated for 48 hrs by sulforhodamine B assay relative to control; assay type: functional; conditions: HT-29, 48 h, read-out: Activity
OVCAR-5 [10] = experiment: Growth inhibition of human OVCAR5 cells assessed as cell growth at 0.1 uM incubated for 48 hrs by sulforhodamine B assay relative to control; assay type: functional; conditions: OVCAR-5, 48 h, read-out: Activity
RPMI-8226 = experiment: Growth inhibition of human RPMI8226 cells assessed as cell growth at 0.01 uM incubated for 48 hrs by sulforhodamine B assay relative to control; assay type: functional; conditions: RPMI-8226, 48 h, read-out: Activity
HT-29 [11] = experiment: Growth inhibition of human HT-29 cells assessed as cell growth at 100 uM incubated for 48 hrs by sulforhodamine B assay relative to control; assay type: functional; conditions: HT-29, 48 h, read-out: Activity
MCF7 = experiment: Growth inhibition of human MCF7 cells assessed as cell growth at 100 uM incubated for 48 hrs by sulforhodamine B assay relative to control; assay type: functional; conditions: MCF7, 48 h, read-out: Activity
OVCAR-8 [12] = experiment: Growth inhibition of human OVCAR8 cells assessed as cell growth at 0.01 uM incubated for 48 hrs by sulforhodamine B assay relative to control; assay type: functional; conditions: OVCAR-8, 48 h, read-out: Activity
Malme-3M = experiment: Growth inhibition of human MALME-3M cells assessed as cell growth at 1 uM incubated for 48 hrs by sulforhodamine B assay relative to control; assay type: functional; conditions: read-out: Activity
SNB-75 = experiment: Growth inhibition of human SNB75 cells assessed as cell growth at 100 uM incubated for 48 hrs by sulforhodamine B assay relative to control; assay type: functional; conditions: SNB-75, 48 h, read-out: Activity
NCI-H322M = experiment: Growth inhibition of human NCI-H322M cells assessed as cell growth at 100 uM incubated for 48 hrs by sulforhodamine B assay relative to control; assay type: functional; conditions: read-out: Activity
SK-MEL-28 = experiment: Growth inhibition of human SK-MEL-28 cells assessed as cell growth at 100 uM incubated for 48 hrs by sulforhodamine B assay relative to control; assay type: functional; conditions: SK-MEL-28, 48 h, read-out: Activity
COLO 205 = experiment: Growth inhibition of human COLO205 cells assessed as cell growth at 0.1 uM incubated for 48 hrs by sulforhodamine B assay relative to control; assay type: functional; conditions: COLO 205, 48 h, read-out: Activity
SF-539 = experiment: Growth inhibition of human SF539 cells incubated for 48 hrs by sulforhodamine B assay; assay type: functional, cell-based; conditions: SF-539, 48 h
HCT-116 = experiment: Growth inhibition of human HCT116 cells assessed as cell growth at 1 uM incubated for 48 hrs by sulforhodamine B assay relative to control; assay type: functional; conditions: HCT-116, 48 h, read-out: Activity
BT-549 = experiment: Growth inhibition of human BT549 cells assessed as cell growth at 100 uM incubated for 48 hrs by sulforhodamine B assay relative to control; assay type: functional; conditions: BT-549, 48 h, read-out: Activity
[13] = read-out: LC50 (the source's name)
[14] = read-out: pLC50 (the source's name) (converted)

COc1cc(Cl)cc(-c2nn(-c3cccc(NC(=O)Nc4cccc(C(F)(F)F)c4)c3)cc2-c2ccncc2)c1
growth at 1 µM (OVCAR-5 [1]): 88%
growth at 0.01 µM (NCI-H460 [2]): 102%
growth at 1 µM (LOX IMVI): 72%
GI50 (SK-OV-3; read-out: GI50): 3.61 µM
CC50 (SK-OV-3; [13]): > 100 µM
TGI (SK-OV-3; read-out: TGI): 55.4 µM
GI50 (SK-OV-3; read-out: pGI50 (converted)): 3.63 µM
CC50 (SK-OV-3; [14]): > 100 µM
TGI (SK-OV-3; read-out: pTGI (converted)): 58.9 µM
growth at 0.1 µM (HT-29 [3]): 95%
growth at 1 µM (SW-620): 74%
GI50 (NCI-H460 [4]; read-out: GI50): 0.84 µM
CC50 (NCI-H460 [4]; [13]): > 100 µM
TGI (NCI-H460 [4]; read-out: TGI): 45.8 µM
CC50 (NCI-H460 [4]; [14]): > 100 µM
IC50 (U-251): 0.88 µM
GI50 (U-251; read-out: GI50): 0.679 µM
CC50 (U-251; [13]): 89.4 µM
TGI (U-251; read-out: TGI): 29.1 µM
GI50 (U-251; read-out: pGI50 (converted)): 0.891 µM
CC50 (U-251; [14]): 8.91 µM
TGI (U-251; read-out: pTGI (converted)): 2.88 µM
growth at 0.01 µM (NCI-H226 [5]): 95%
LC50 (RXF 393): 36.3 µM
GI50 (RXF 393; read-out: GI50): 1.4 µM
TGI (RXF 393; read-out: TGI): 43.5 µM
GI50 (RXF 393; read-out: pGI50 (converted)): 1.41 µM
TGI (RXF 393; read-out: pTGI (converted)): 4.37 µM
growth at 100 µM (NCI-H460 [6]): -48%
growth at 100 µM (UACC-62): -82%
growth at 100 µM (OVCAR-8 [7]): -43%
growth at 1 µM (ACHN): 65%
GI50 (NCI-H226 [8]; read-out: GI50): 2.26 µM
LC50 (NCI-H226 [8]; read-out: LC50): > 100 µM
TGI (NCI-H226 [8]; read-out: TGI): 11.5 µM
GI50 (NCI-H226 [8]; read-out: pGI50 (converted)): 2.24 µM
LC50 (NCI-H226 [8]; read-out: pLC50 (converted)): > 100 µM
TGI (NCI-H226 [8]; read-out: pTGI (converted)): 28.8 µM
growth at 0.1 µM (PC-3): 57%
growth at 0.01 µM (HT-29 [9]): 102%
growth at 0.1 µM (OVCAR-5 [10]): 54%
growth at 0.01 µM (RPMI-8226): 99%
growth at 100 µM (HT-29 [11]): -97%
growth at 100 µM (MCF7): -24%
growth at 0.01 µM (OVCAR-8 [12]): 97%
growth at 1 µM (Malme-3M): 75%
growth at 100 µM (SNB-75): -17%
growth at 100 µM (NCI-H322M): -8%
growth at 100 µM (SK-MEL-28): -25%
growth at 0.1 µM (COLO 205): 101%
GI50 (SF-539; read-out: GI50): 1 µM
CC50 (SF-539; [13]): 21.1 µM
TGI (SF-539; read-out: TGI): 45.2 µM
GI50 (SF-539; read-out: pGI50 (converted)): 1.91 µM
CC50 (SF-539; [14]): 21.4 µM
TGI (SF-539; read-out: pTGI (converted)): 4.79 µM
growth at 1 µM (HCT-116): 43%
growth at 100 µM (BT-549): -48%

O=C(Nc1cccc(-n2cc(-c3ccncc3)c(-c3cc(O)cc(Cl)c3)n2)c1)Nc1ccc(Cl)c(Cl)c1
growth at 1 µM (OVCAR-5 [1]): 56%
growth at 0.01 µM (NCI-H460 [2]): 102%
growth at 1 µM (LOX IMVI): 83%
GI50 (SK-OV-3; read-out: GI50): 3.42 µM
CC50 (SK-OV-3; [13]): > 100 µM
TGI (SK-OV-3; read-out: TGI): 94.3 µM
GI50 (SK-OV-3; read-out: pGI50 (converted)): 3.39 µM
CC50 (SK-OV-3; [14]): > 100 µM
TGI (SK-OV-3; read-out: pTGI (converted)): 9.33 µM
growth at 0.1 µM (HT-29 [3]): 97%
growth at 1 µM (SW-620): 102%
GI50 (NCI-H460 [4]; read-out: GI50): 2.18 µM
CC50 (NCI-H460 [4]; [13]): > 100 µM
TGI (NCI-H460 [4]; read-out: TGI): 61.4 µM
GI50 (NCI-H460 [4]; read-out: pGI50 (converted)): 2.19 µM
CC50 (NCI-H460 [4]; [14]): > 100 µM
TGI (NCI-H460 [4]; read-out: pTGI (converted)): 6.17 µM
IC50 (U-251): 1.44 µM
GI50 (U-251; read-out: GI50): 1.44 µM
CC50 (U-251; [13]): 5.51 µM
TGI (U-251; read-out: TGI): 30 µM
GI50 (U-251; read-out: pGI50 (converted)): 1.45 µM
CC50 (U-251; [14]): 6.61 µM
TGI (U-251; read-out: pTGI (converted)): 3.09 µM
growth at 0.01 µM (NCI-H226 [5]): 94%
LC50 (RXF 393): 8.13 µM
GI50 (RXF 393; read-out: GI50): 0.556 µM
TGI (RXF 393; read-out: TGI): 24.6 µM
GI50 (RXF 393; read-out: pGI50 (converted)): 0.55 µM
TGI (RXF 393; read-out: pTGI (converted)): 2.45 µM
growth at 100 µM (NCI-H460 [6]): -48%
growth at 100 µM (UACC-62): -74%
growth at 100 µM (OVCAR-8 [7]): -38%
growth at 1 µM (ACHN): 79%
GI50 (NCI-H226 [8]; read-out: GI50): 2.28 µM
LC50 (NCI-H226 [8]; read-out: LC50): > 100 µM
TGI (NCI-H226 [8]; read-out: TGI): 71.6 µM
GI50 (NCI-H226 [8]; read-out: pGI50 (converted)): 2.29 µM
LC50 (NCI-H226 [8]; read-out: pLC50 (converted)): > 100 µM
TGI (NCI-H226 [8]; read-out: pTGI (converted)): 7.08 µM
growth at 0.1 µM (PC-3): 90%
growth at 0.01 µM (HT-29 [9]): 91%
growth at 0.1 µM (OVCAR-5 [10]): 90%
growth at 0.01 µM (RPMI-8226): 104%
growth at 100 µM (HT-29 [11]): -70%
growth at 100 µM (MCF7): -2%
growth at 0.01 µM (OVCAR-8 [12]): 102%
growth at 1 µM (Malme-3M): 76%
growth at 100 µM (SNB-75): -15%
growth at 100 µM (NCI-H322M): -24%
growth at 100 µM (SK-MEL-28): -52%
growth at 0.1 µM (COLO 205): 103%
GI50 (SF-539; read-out: GI50): 1.44 µM
CC50 (SF-539; [13]): 7.4 µM
TGI (SF-539; read-out: TGI): 32.7 µM
GI50 (SF-539; read-out: pGI50 (converted)): 1.45 µM
CC50 (SF-539; [14]): 7.41 µM
TGI (SF-539; read-out: pTGI (converted)): 3.24 µM
growth at 1 µM (HCT-116): 82%
growth at 100 µM (BT-549): -38%
